Measurements reported in patent US7906656B2, “Iodopyrazolyl carboxanilides” (Bayer CropScience AG, priority 2003, dated 2011).

These compounds were tested on Venturia inaequalis (assay: Venturia test (apple)/protective). Conditions: 240 h, protective, application rate 100 g/ha, evaluation 10 days after inoculation, read-out: Efficacy in %.
Format: in vivo
Protocol: To produce a suitable preparation of active compound, 1 part by weight of active compound is mixed with the stated amounts of solvents and emulsifier, and the concentrate is diluted with water to the desired concentration. To test for protective activity, young plants are sprayed with the preparation of active compound at the stated application rate. After the spray coating has dried on, the plants are inoculated with an aqueous conidia suspension of the apple pathogen Venturia inaequalis and then remain in an incubation cabin at about 20° C. and 100% relative atmospheric humidity for 1 day. The plants are then placed in a greenhouse at about 21° C. and a relative atmospheric humidity of about 90%. Evaluation is carried out 10 days after the inoculation. 0% means an efficacy which corresponds to that of the control, whereas an efficacy of 100% means that no infection is observed.
For `Cn1cc(C(=O)Nc2ccccc2-c2ccc(I)cc2)c(I)n1` [drawing 81], the pest or weed control at 100 g/ha was 99%.
With `Cn1cc(C(=O)Nc2ccccc2-c2ccc(Cl)c(F)c2)c(I)n1` [drawing 75] the pest or weed control at 100 g/ha was 100%.
`CC(C)CC(C)c1cc(F)ccc1NC(=O)c1cn(C)nc1I` (centres unmarked) [drawing 84] was tested, and the pest or weed control at 100 g/ha was 100%.
`Cn1cc(C(=O)Nc2ccccc2-c2ccc(F)c(Cl)c2)c(I)n1` [drawing 73] showed a pest or weed control at 100 g/ha of 100%.

What follows are compounds tested on Pyrenophora teres (assay: Pyrenophora teres test (barley)/protective). Conditions: 192 h, protective, application rate 500 g/ha, evaluation 8 days after inoculation, read-out: Efficacy in %.
Format: in vivo
Protocol: (§1) To produce a suitable preparation of active compound, 1 part by weight of active compound is mixed with the stated amounts of solvent and emulsifier, and the concentrate is diluted with water to the desired concentration. To test for protective activity, young plants are sprayed with the preparation of active compound at the stated application rate. After the spray coating has dried on, the plants are sprayed with a conidia suspension of Pyrenophora teres. The plants remain in an incubation cabin at 20° C. and 100% relative atmospheric humidity for 48 hours. The plants are then placed in a greenhouse at a temperature of about 20° C. and a relative atmospheric humidity of about 80%. Evaluation is carried out 8 days after the inoculation. 0% means an efficacy which corresponds to that of the control, whereas an efficacy of 100% means that no infection is observed.
`Cn1cc(C(=O)Nc2ccccc2-c2ccc(Cl)c(F)c2)c(I)n1` [drawing 103] showed a pest or weed control at 500 g/ha of 100%.
`Cn1cc(C(=O)Nc2ccccc2-c2ccc(Br)cc2)c(I)n1` [drawing 107] showed a pest or weed control at 500 g/ha of 100%.
Compound `Cn1cc(C(=O)Nc2ccccc2-c2ccc(Cl)cc2)c(I)n1` [drawing 105] has a pest or weed control at 500 g/ha of 100%.
`Cn1cc(C(=O)Nc2ccccc2-c2ccc(I)cc2)c(I)n1` [drawing 104] showed a pest or weed control at 500 g/ha of 100%.
With `CC(C)CC(C)c1ccccc1NC(=O)c1cn(C)nc1I` (centres unmarked) [drawing 102] the pest or weed control at 500 g/ha was 100%.
`Cn1cc(C(=O)Nc2ccccc2-c2ccc(C(F)(F)F)c(F)c2)c(I)n1` [drawing 108] showed a pest or weed control at 500 g/ha of 100%.
In the case of `CC(C)CC(C)c1cc(F)ccc1NC(=O)c1cn(C)nc1I` (centres unmarked) [drawing 110], the pest or weed control at 500 g/ha is reported as 100%.
`CC(=O)N(C(=O)c1cn(C)nc1I)c1ccccc1C(C)CC(C)C` (centres unmarked) [drawing 109] gave a pest or weed control at 500 g/ha of 100%.
With `CC(CC(C)(C)C)c1ccccc1NC(=O)c1cn(C)nc1I` (centres unmarked) [drawing 101] the pest or weed control at 500 g/ha was 93%.
For `Cn1cc(C(=O)Nc2ccccc2-c2ccc(F)c(Cl)c2)c(I)n1` [drawing 106], the pest or weed control at 500 g/ha was 100%.

The compounds below were run on Botrytis cinerea (assay: Botrytis test (bean)/protective). Conditions: 48 h, protective, application rate 100 g/ha, evaluation 2 days after inoculation, read-out: Efficacy in %.
Format: in vivo
Protocol: To produce a suitable preparation of active compound, 1 part by weight of active compound is mixed with the stated amounts of solvents and emulsifier, and the concentrate is diluted with water to the desired concentration. To test for protective activity, young plants are sprayed with the preparation of active compound at the stated application rate. After the spray coating has dried on, 2 small pieces of agar colonized with Botrytis cinerea are placed onto each leaf. The inoculated plants are placed in a darkened chamber at about 20° C. and 100% relative atmospheric humidity. 2 days after the inoculation, the size of the infected areas on the leaves is evaluated. 0% means an efficacy which corresponds to that of the control, whereas an efficacy of 100% means that no infection is observed.
In the case of `Cn1cc(C(=O)Nc2ccc(F)cc2-c2ccc(Cl)c(Cl)c2)c(I)n1` [drawing 88], the pest or weed control at 100 g/ha is reported as 100%.
With `CC(C)CC(C)c1cc(F)ccc1NC(=O)c1cn(C)nc1I` (centres unmarked) [drawing 100] the pest or weed control at 100 g/ha was 100%.
Compound `CC(C)CCc1ccccc1NC(=O)c1cn(C)nc1I` [drawing 98] has a pest or weed control at 100 g/ha of 98%.
`Cn1cc(C(=O)Nc2ccccc2-c2ccc(Cl)cc2)c(I)n1` [drawing 96] was tested, and the pest or weed control at 100 g/ha was 100%.
With `CC1CC(C)(C)c2cccc(NC(=O)c3cn(C)nc3I)c21` (centres unmarked) [drawing 99] the pest or weed control at 100 g/ha was 100%.
For `Cn1cc(C(=O)Nc2ccccc2-c2ccc(I)cc2)c(I)n1` [drawing 97], the pest or weed control at 100 g/ha was 100%.

Same assay, conditions: 48 h, protective, application rate 500 g/ha, evaluation 2 days after inoculation, read-out: Efficacy in %
`Cn1cc(C(=O)Nc2ccccc2-c2ccc(Br)cc2)c(I)n1` [drawing 90] gave a pest or weed control at 500 g/ha of 100%.
For `Cn1cc(C(=O)Nc2ccccc2-c2ccc(C(F)(F)F)cc2)c(I)n1` [drawing 94], the pest or weed control at 500 g/ha was 94%.
With `Cn1cc(C(=O)Nc2ccccc2-c2ccc(Cl)c(F)c2)c(I)n1` [drawing 91] the pest or weed control at 500 g/ha was 100%.
`Cn1cc(C(=O)Nc2ccccc2-c2ccc(F)c(Cl)c2)c(I)n1` [drawing 89] showed a pest or weed control at 500 g/ha of 100%.
In the case of `Cn1cc(C(=O)Nc2ccccc2-c2ccc(C(F)(F)F)c(F)c2)c(I)n1` [drawing 95], the pest or weed control at 500 g/ha is reported as 100%.
Work on `CC(C)CC(C)c1ccccc1NC(=O)c1cn(C)nc1I` (centres unmarked) [drawing 86] yielded a pest or weed control at 500 g/ha of 100%.
With `Cc1ccc(-c2ccccc2NC(=O)c2cn(C)nc2I)cc1F` [drawing 93] the pest or weed control at 500 g/ha was 100%.
Work on `CCCO/N=C/c1ccc(-c2ccccc2NC(=O)c2cn(C)nc2I)cc1F` [drawing 92] yielded a pest or weed control at 500 g/ha of 100%.
With `CC(CC(C)(C)C)c1ccccc1NC(=O)c1cn(C)nc1I` (centres unmarked) [drawing 85] the pest or weed control at 500 g/ha was 100%.
For `Cn1cc(C(=O)Nc2ccccc2-c2ccc(Cl)c(Cl)c2)c(I)n1` [drawing 87], the pest or weed control at 500 g/ha was 100%.

What follows are compounds tested on Alternaria solani (assay: Alternaria test (tomato)/protective). Conditions: protective, application rate 750 g/ha, evaluation 7 days after inoculation.
Format: in vivo
Protocol: To produce a suitable preparation of active compound, 1 part by weight of active compound is mixed with the stated amounts of solvent and emulsifier, and the concentrate is diluted with water to the desired concentration. To test for protective activity, young tomato plants are sprayed with the preparation of active compound at the stated application rate. 1 day after the treatment, the plants are inoculated with a spore suspension of Alternaria solani and are then allowed to stand at 100% relative atmospheric humidity and 20° C. for 24 h. The plants are then allowed to stand at 96% relative atmospheric humidity and a temperature of 20° C. The evaluation is carried out 7 days after the inoculation. 0% means an efficacy which corresponds to that of the control, whereas an efficacy of 100% means that no infection is observed.
Compound `Cn1cc(C(=O)Nc2ccccc2-c2ccc(F)c(Cl)c2)c(I)n1` [drawing 127] has an Efficacy in % of 100%.
`Cn1cc(C(=O)Nc2ccc(F)cc2-c2ccc(Cl)c(Cl)c2)c(I)n1` [drawing 126] was tested, and the Efficacy in % was 100%.
`Cn1cc(C(=O)Nc2ccccc2-c2ccc(I)cc2)c(I)n1` [drawing 125] gave an Efficacy in % of 100%.

The compounds below were run on Puccinia recondita (assay: Puccinia test (wheat)/protective). Conditions: 240 h, protective, application rate 500 g/ha, evaluation 10 days after inoculation, read-out: Efficacy in %.
Format: in vivo
Protocol: as §1, with “of Puccinia recondita.” for “of Pyrenophora teres.”, “of 80% to promote the development of rust pustules.” for “of about 80%.”, “out 10” for “out 8”
`CC(C)CC(C)c1ccccc1NC(=O)c1cn(C)nc1I` (centres unmarked) [drawing 112] gave a pest or weed control at 500 g/ha of 100%.
`Cn1cc(C(=O)Nc2ccccc2-c2ccc(Cl)c(F)c2)c(I)n1` [drawing 113] gave a pest or weed control at 500 g/ha of 100%.
Compound `CC(CC(C)(C)C)c1ccccc1NC(=O)c1cn(C)nc1I` (centres unmarked) [drawing 111] has a pest or weed control at 500 g/ha of 100%.
`CC(=O)N(C(=O)c1cn(C)nc1I)c1ccccc1C(C)CC(C)C` (centres unmarked) [drawing 120] showed a pest or weed control at 500 g/ha of 100%.
In the case of `C=C(CC(C)(C)C)c1ccccc1NC(=O)c1cn(C)nc1I` [drawing 124], the pest or weed control at 500 g/ha is reported as 100%.
Work on `Cn1cc(C(=O)Nc2ccccc2-c2ccc(Cl)cc2)c(I)n1` [drawing 116] yielded a pest or weed control at 500 g/ha of 100%.
With `CC1CC(C)(C)c2cccc(NC(=O)c3cn(C)nc3I)c21` (centres unmarked) [drawing 123] the pest or weed control at 500 g/ha was 100%.
`Cn1cc(C(=O)Nc2ccccc2-c2ccc(I)cc2)c(I)n1` [drawing 114] gave a pest or weed control at 500 g/ha of 100%.
`CC(C)CCc1ccccc1NC(=O)c1cn(C)nc1I` [drawing 122] gave a pest or weed control at 500 g/ha of 100%.
`Cn1cc(C(=O)Nc2ccccc2-c2ccc(Cl)c(Cl)c2)c(I)n1` [drawing 115] was tested, and the pest or weed control at 500 g/ha was 100%.
Work on `Cn1cc(C(=O)Nc2ccccc2-c2ccc(Br)cc2)c(I)n1` [drawing 118] yielded a pest or weed control at 500 g/ha of 100%.
`Cn1cc(C(=O)Nc2ccccc2-c2ccc(F)c(Cl)c2)c(I)n1` [drawing 117] showed a pest or weed control at 500 g/ha of 100%.
Work on `Cn1cc(C(=O)Nc2ccccc2-c2ccc(C(F)(F)F)c(F)c2)c(I)n1` [drawing 119] yielded a pest or weed control at 500 g/ha of 100%.
With `CC(C)CC(C)c1cc(F)ccc1NC(=O)c1cn(C)nc1I` (centres unmarked) [drawing 121] the pest or weed control at 500 g/ha was 100%.
